Assay results as given in patent US6046217A, “2,3,5-trisubstituted pyridines as inhibitors of cyclooxygenase-2” (Merck Frosst Canada & Co., priority 1998, dated 2000).
Where two headings read alike, the source gives them in different places.

Columns and labels:
COX-1 [1] = target: T1, COX-1 (Homo sapiens, UniProt P23219); test: Assay of COX-1 activity from U937 cell microsomes (PGE2); type: biochemical; set-up: Assay of COX-1 Activity from U937 Cell Microsomes; endogenous in cells; host or cells: U937 cells, 100,000 x g microsomal pellet; details: 15 min preincubation
T1 sequence (P23219 24-599): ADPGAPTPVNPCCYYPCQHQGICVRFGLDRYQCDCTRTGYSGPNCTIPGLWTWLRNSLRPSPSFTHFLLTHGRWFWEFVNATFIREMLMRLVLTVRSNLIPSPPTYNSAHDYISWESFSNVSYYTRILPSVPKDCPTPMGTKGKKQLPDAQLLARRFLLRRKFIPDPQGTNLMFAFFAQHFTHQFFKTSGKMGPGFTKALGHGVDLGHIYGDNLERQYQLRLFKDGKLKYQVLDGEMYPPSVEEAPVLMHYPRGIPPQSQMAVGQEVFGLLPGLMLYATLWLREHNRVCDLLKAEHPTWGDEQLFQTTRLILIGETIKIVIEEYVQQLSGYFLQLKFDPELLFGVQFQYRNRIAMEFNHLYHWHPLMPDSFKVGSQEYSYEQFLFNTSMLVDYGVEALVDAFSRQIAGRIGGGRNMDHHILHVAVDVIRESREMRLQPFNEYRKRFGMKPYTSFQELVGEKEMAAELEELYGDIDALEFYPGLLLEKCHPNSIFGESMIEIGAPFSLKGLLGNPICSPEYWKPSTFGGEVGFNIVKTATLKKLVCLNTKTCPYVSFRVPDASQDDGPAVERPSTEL
Experimental: U 937 cells are pelleted by centrifugation at 500×g for 5 min and washed once with phosphate-buffered saline and repelleted. Cells are resuspended in homogenization buffer consisting of 0.1 M Tris-HCl, pH 7.4, 10 mM EDTA, […] leupeptin, 2 μg/ml soybean trypsin inhibitor, 2 μg/ml aprotinin and 1 mM phenyl methyl sulfonyl fluoride. The cell suspension is sonicated 4 times for 10 sec and is centrifuged at 10,000×g for 10 min at 4° C. The supernatant is centrifuged at 100,000×g for 1 hr at 4° C. The 100,000×g microsomal pellet is resuspended in 0.1 M Tris-HCl, pH 7.4, 10 mM EDTA to approximately 7 mg protein/ml and stored at -80° C.
Microsomal preparations are thawed immediately prior to use, subjected to a brief sonication, and then diluted to a protein concentration of 125 μg/ml in 0.1 M Tris-HCl buffer, pH 7.4 containing 10 mM EDTA, 0.5 mM phenol, 1 mM reduced glutathione and 1 μM hematin. Assays are performed in duplicate in a final volume of 250 μl. Initially, 5 μl of DMSO vehicle or drug in DMSO are added to 20 μl of 0.1 M Tris-HCl buffer, pH 7.4 containing 10 mM EDTA in wells of a 96-deepwell polypropylene titre plate. 200 μl of the microsomal preparation are then added and pre-incubated for 15 min at room temperature before addition of 25 μl of […] arachidonic acid in […] Tris-HCl and 10 mM EDTA, pH 7.4. Samples are incubated for 40 min at room temperature and the reaction is stopped by the addition of 25 μl of 1 N HCl. Samples are neutralized with 25 μl of 1 N NaOH prior to quantitation of PGE2 content by radioimmunoassay (Dupont-NEN or Amersham assay kits). Cyclooxygenase activity is defined as the difference between PGE2 levels in samples incubated in the presence of arachidonic acid and ethanol vehicle.
In the assay, inhibition is determined by measuring the amount of prostaglandin E2 (PGE2) synthesized in the presence of arachidonic acid, cyclooxygenase-1 or cyclooxygenase-2 and a putative inhibitor.

COX-1 [2] = target: T1, COX-1; test: Human whole blood assay, COX-1 (clotting-induced TxB2 production); type: cell-based; set-up: platelets in whole blood contain a large amount of the COX-1 enzyme; endogenous in cells; host or cells: platelets in fresh human whole blood, clotting
From the text: (§1) As well, platelets in whole blood contain a large amount of the COX-1 enzyme. Immediately following blood clotting, platelets are activated through a thrombin-mediated mechanism. This reaction results in the production of thromboxane B2 (TxB2) via activation of COX-1. Thus, the effect of test compounds on TxB2 levels following blood clotting can be examined and used as an index for COX-1 activity. Therefore, the degree of selectivity by the test compound can be determined by measuring the levels of PGE2 after LPS induction (COX-2) and TxB2 following blood clotting (COX-1) in the same assay.
Fresh blood is collected into vacutainers containing no anticoagulants. […] The tubes are vortexed and incubated at 37° C. for 1 hour to allow blood to clot. At the end of incubation, serum is obtained by centrifugation (12,000×g for 5 min.). A 100 μL aliquot of serum is mixed with 400 μL of methanol for protein precipitation.

COX-2 [3] = target: T2, COX-2 (Homo sapiens, UniProt P35354); test: cell-based
T2 sequence (P35354 18-604): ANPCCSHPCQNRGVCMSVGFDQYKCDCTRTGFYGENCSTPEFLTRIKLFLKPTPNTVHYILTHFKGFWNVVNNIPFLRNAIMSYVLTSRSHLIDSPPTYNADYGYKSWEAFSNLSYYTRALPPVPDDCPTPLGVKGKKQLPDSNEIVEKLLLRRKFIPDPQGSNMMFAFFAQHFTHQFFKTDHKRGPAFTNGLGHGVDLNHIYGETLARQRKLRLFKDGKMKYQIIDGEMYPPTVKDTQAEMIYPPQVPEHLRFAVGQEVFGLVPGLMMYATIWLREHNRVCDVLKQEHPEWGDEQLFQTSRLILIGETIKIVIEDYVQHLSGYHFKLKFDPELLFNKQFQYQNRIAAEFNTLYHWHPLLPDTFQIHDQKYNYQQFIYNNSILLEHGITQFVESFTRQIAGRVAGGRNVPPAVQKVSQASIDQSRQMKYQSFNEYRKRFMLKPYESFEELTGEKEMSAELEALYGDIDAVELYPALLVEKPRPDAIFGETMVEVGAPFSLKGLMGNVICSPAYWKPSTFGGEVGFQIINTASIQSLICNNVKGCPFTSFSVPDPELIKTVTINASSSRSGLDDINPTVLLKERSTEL
Experimental: For cyclooxygenase assays, CHO[hCOX-1] cells from suspension cultures and CHO[hCOX-2] cells prepared by trypsinization of adherent cultures are harvested by centrifugation (300×g, 10 min) and washed once in HBSS containing 15 mM HEPES, pH 7.4, and resuspended in HBSS, 15 mM HEPES, pH 7.4, at a cell concentration of 1.5×10^6 cells/ml. Drugs to be tested are dissolved in DMSO to 66.7-fold the highest test drug concentration. […] Cells (0.3×10^6 cells in 200 μl) are preincubated with 3 μl of the test drug or DMSO vehicle for 15 min at 37° C. Working solutions of peroxide-free AA (5.5 μM and 110 μM AA for the CHO [hCOX-1] and CHO [COX-2] assays, respectively) are prepared by a 10-fold dilution of a concentrated AA solution in ethanol into HBSS containing 15 mM HEPES, pH 7.4. Cells are then challenged in the presence or absence of drug with the AA/HBSS solution to yield a final concentration of 0.5 μM AA in the CHO[hCOX-1] assay and a final concentration of 10 μM AA in the CHO[hCOX-2] assay. The reaction is terminated by the addition of 10 μl 1 N HCl followed by neutralization with 20 μl of 0.5 N NaOH. The samples are centrifuged at 300 ×g at 4° C. for 10 min, and an aliquot of the clarified supernatant is appropriately diluted for the determination of PGE2 levels using an enzyme-linked immunoassay for PGE2 (Correlate PGE2 enzyme immunoassay kit, Assay Designs, Inc.). Cyclooxygenase activity in the absence of test compounds is determined as the difference in PGE2 levels of cells challenged with arachidonic acid versus the PGE2 levels in cells mock-challenged with ethanol vehicle. Inhibition of PGE2 synthesis by test compounds is calculated as a percentage of the activity in the presence of drug versus the activity in the positive control samples.

COX-2 [4] = target: T2, COX-2; test: cell-based; details: human whole blood, LPS-induced PGE2, 24 h
From the text: as §1
Fresh blood is collected in heparinized tubes by venipuncture from both male and female volunteers. The subjects have no apparent inflammatory conditions and have not taken any NSAIDs for at least 7 days prior to blood collection. Plasma is immediately obtained from a 2mL blood aliquot to use as blank (basal levels of PGE2). The remaining blood is incubated with LPS (100 μg/ml final concentration, Sigma Chem, #L-2630 from E. coli; diluted in 0.1% BSA (Phosphate buffered saline) for 5 minutes at room temperature. Five hundred […] aliquots of blood are incubated with either 2 μL of vehicle (DMSO) or 2 μL of a test compound at final concentrations varying from 10 nM to 30 μM for 24 hours at 37° C. At the end of the incubation, the blood is centrifuged at 12,000×g for 5 minutes to obtain plasma. A 100 μL aliquot of plasma is mixed with 400 μL of methanol for protein precipitation. The supernatant is obtained and is assayed for PGE2 using a radioimmunoassay kit (Amersham, RPA#530) after conversion of PGE2 to its methyl oximate derivative according to the manufacturer's procedure. […]

[5] = U-937 cell microsomes, read-out: COX-1 (IC50 mM) U-937
[6] = human whole blood, clotting-induced TxB2, 1 h, read-out: COX-1 (IC50 mM) HWB
[7] = CHO[hCOX-2] cells, 10 μM AA, 15 min preincubation, read-out: COX-2 (IC50 mM) CHO

With `C[C@]1(O)CCC[C@H]1Oc1ncc(C(F)(F)F)cc1-c1ccc(S(C)(=O)=O)cc1` (single isomer, unassigned) [Example 31, (+)-2-(cis-2-Hydroxy-2-methylcyclopentyloxy)-3-(4-methylsulfonyl)phenyl-5-trifluoromethylpyridine] the IC50 (COX-1 [1]; [5]) was 0.037 mM and the IC50 (COX-1 [2]; [6]) was over 0.1 mM.
Compound `C[C@]1(O)CCC[C@H]1Oc1ncc(C(F)(F)F)cc1-c1ccc(S(C)(=O)=O)cc1` (single isomer, unassigned) [Example 32, (-)-2-(cis-2-Hydroxy-2-methylcyclopentyloxy)-3-(4-methylsulfonyl)phenyl-5-trifluoromethylpyridine] has an IC50 (COX-1 [1]; [5]) of over 0.01 mM and an IC50 (COX-1 [2]; [6]) of over 0.1 mM.
Compound `CS(=O)(=O)c1ccc(-c2cc(C(F)(F)F)cnc2OCC2(O)CCCC2)cc1` [Example 13, 2-(1-Hydroxycyclopentyl)methoxy-3-(4-methylsulfonyl)phenyl-5-trifluoromethylpyridine] has an IC50 (COX-1 [1]; [5]) of 0.01 mM and an IC50 (COX-1 [2]; [6]) of 0.096 mM.
`C[C@@H](Oc1ncc(C(F)(F)F)cc1-c1ccc(S(C)(=O)=O)cc1)C(C)(C)O` [Example 17, 2-((2R)-3-Hydroxy-3-methyl-2-butyloxy)-3-(4-methylsulfonyl)phenyl-5-trifluoromethylpyridine] was tested, and the IC50 (COX-1 [1]; [5]) was over 0.01 mM, the IC50 (COX-1 [2]; [6]) was over 0.1 mM and the IC50 (COX-2 [3]; [7]) was 380 nM. It also gave an IC50 (COX-2 [4]; read-out: COX-2 (IC50 mM) HWB) of under 0.0004 mM.
`CCC(O)(CC)[C@@H](C)Oc1ncc(C(F)(F)F)cc1-c1ccc(S(C)(=O)=O)cc1` [Example 21, 2-((2R)-3-Ethyl-3-hydroxy-2-pentyloxy)-3-(4-methylsulfonyl)phenyl-5-trifluoromethylpyridine] was tested, and the IC50 (COX-1 [1]; [5]) was over 0.01 mM, the IC50 (COX-1 [2]; [6]) was over 0.1 mM and the IC50 (COX-2 [3]; [7]) was 200 nM. It also gave an IC50 (COX-2 [4]; read-out: COX-2 (IC50 mM) HWB) of 0.0047 mM.
`C[C@@H](O)[C@@H](C)Oc1ncc(C(F)(F)F)cc1-c1ccc(S(C)(=O)=O)cc1` [Example 23, 2-((2R,3R)-3-Hydroxy-2-butyloxy)-3-(4-methylsulfonyl)phenyl-5-trifluoromethylpyridine] showed an IC50 (COX-1 [1]; COX-1 (IC50 mM) U-937, U-937 cell microsomes) of over 0.01 mM, an IC50 (COX-1 [2]) of over 0.1 mM and an IC50 (COX-2 [3]; [7]) of 50 nM. For the same compound, the IC50 (COX-2 [4]; read-out: COX-2 (IC50 mM) HWB) was 0.0005 mM.
In the case of `C[C@H](CO)Oc1ncc(C(F)(F)F)cc1-c1ccc(S(C)(=O)=O)cc1` [Example 28, 2-((2R)-1-Hydroxy-2-propyloxy)-3-(4-methylsulfonyl)phenyl-5-trifluoromethylpyridine], the IC50 (COX-1 [1]; [5]) is reported as over 0.01 mM, the IC50 (COX-1 [2]; [6]) is reported as over 0.1 mM and the IC50 (COX-2 [3]; [7]) is reported as 40 nM. For the same compound, the IC50 (COX-2 [4]; read-out: COX-2 (IC50 mM) HWB) was 0.0112 mM.
`C[C@@H](O)CCOc1ncc(C(F)(F)F)cc1-c1ccc(S(C)(=O)=O)cc1` [Example 39, 2-((3R)-3-Hydroxy-1-butyloxy)-3-(4-methylsulfonyl)phenyl-5-trifluoromethylpyridine] was tested, and the IC50 (COX-1 [1]; [5]) was over 0.01 mM, the IC50 (COX-2 [3]; [7]) was 200 nM and the IC50 (COX-2 [4]; read-out: COX-2 (IC50 mM) HWB) was 0.0134 mM.
`CC(C)(O)CCOc1ncc(C(F)(F)F)cc1-c1ccc(S(C)(=O)=O)cc1` [Example 40, 2-(3-Hydroxy-3-methyl-1-butyloxy)-3-(4-methylsulfonyl)phenyl-5-trifluoromethylpyridine] gave an IC50 (COX-1 [1]; [5]) of 0.01 mM, an IC50 (COX-2 [3]; [7]) of 200 nM and an IC50 (COX-2 [4]; read-out: COX-2 (IC50 mM) HWB) of 0.0039 mM.
For `C[C@H](CCO)Oc1ncc(C(F)(F)F)cc1-c1ccc(S(C)(=O)=O)cc1` [Example 41, 2-((2R)-4-Hydroxy-2-butyloxy)-3-(4-methylsulfonyl)phenyl-5-trifluoromethylpyridine], the IC50 (COX-1 [1]; [5]) was over 0.01 mM, the IC50 (COX-2 [3]; [7]) was 40 nM and the IC50 (COX-2 [4]; read-out: COX-2 (IC50 mM) HWB) was 0.0004 mM.
For `CC(C)(O)CSc1ncc(C(F)(F)F)cc1-c1ccc(S(C)(=O)=O)cc1` [Example 43, 2-(2-Hydroxy-2-methyl-1-thiopropyloxy)-3-(4-methylsulfonyl)phenyl-5-trifluoromethylpyridine], the IC50 (COX-1 [1]; [5]) was 0.003 to 0.01 mM and the IC50 (COX-1 [2]; [6]) was 0.039 mM.
`CC(C)(O)CSc1ncc(Cl)cc1-c1ccc(S(C)(=O)=O)cc1` [Example 44, 5-Chloro-2-(2-Hydroxy-2-methyl-1-thiopropyloxy)-3-(4-methylsulfonyl)phenylpyridine] showed an IC50 (COX-1 [1]; [5]) of over 0.01 mM, an IC50 (COX-2 [3]; [7]) of 40 nM and an IC50 (COX-2 [4]; read-out: COX-2 (IC50 mM) HWB) of 0.0015 mM.
For `CCC(O)(CC)CSc1ncc(C(F)(F)F)cc1-c1ccc(S(C)(=O)=O)cc1` [Example 47, 2-(2-Ethyl-2-hydroxy-1-thiobutyloxy)-3-(4-methylsulfonyl)phenyl-5-trifluoromethylpyridine], the IC50 (COX-1 [1]; [5]) was 0.003 to 0.01 mM, the IC50 (COX-2 [3]; [7]) was 20 nM and the IC50 (COX-2 [4]; read-out: COX-2 (IC50 mM) HWB) was 0.0006 mM.
For `CCC(O)(CC)CSc1ncc(Cl)cc1-c1ccc(S(C)(=O)=O)cc1` [Example 48, 5-Chloro-2-(2-ethyl-2-hydroxy-1-thiobutyloxy)-3-(4-methylsulfonyl)phenylpyridine], the IC50 (COX-1 [1]; [5]) was 0.001 to 0.003 mM, the IC50 (COX-2 [3]; [7]) was 70 nM and the IC50 (COX-2 [4]; read-out: COX-2 (IC50 mM) HWB) was 0.0011 mM.
Compound `CS(=O)(=O)c1ccc(-c2cc(C(F)(F)F)cnc2SCC2(O)CCCC2)cc1` [Example 49, 2-(1-Hydroxycyclopentyl)thiomethoxy-3-(4-methylsulfonyl)phenyl-5-trifluoromethylpyridine] has an IC50 (COX-1 [1]; [5]) of 0.0003 mM, an IC50 (COX-2 [3]; [7]) of 160 nM and an IC50 (COX-2 [4]; read-out: COX-2 (IC50 mM) HWB) of 0.0012 mM.
`CC(CO)Sc1ncc(C(F)(F)F)cc1-c1ccc(S(C)(=O)=O)cc1` (stereo not shown) [Example 50, 2-(3-Hydroxy-2-thiopropyloxy)-3-(4-methylsulfonyl)phenyl-5-trifluoromethylpyridine] was tested, and the IC50 (COX-1 [1]; [5]) was 0.001 to 0.003 mM, the IC50 (COX-2 [3]) was 50 nM and the IC50 (COX-2 [4]; COX-2 (IC50 mM) HWB) was 0.0005 mM.
`CC(C)(O)/C=C\c1ncc(Cl)cc1-c1ccc(S(C)(=O)=O)cc1` [Example 51, 5-Chloro-2-((Z)-3-Hydroxy-3-methyl-1-butenyl)-3-(4-methylsulfonyl)phenylpyridine] was tested, and the IC50 (COX-1 [1]; [5]) was 0.001 to 0.003 mM, the IC50 (COX-1 [2]; [6]) was 0.01 mM and the IC50 (COX-2 [3]; [7]) was 10 nM. It also gave an IC50 (COX-2 [4]; read-out: COX-2 (IC50 mM) HWB) of 0.0008 mM.
